# Measurements as given in patent US4863963A, “Novel cinnamoylamide derivatives” (Ono Pharmaceutical Co., Ltd., priority 1987, dated 1989).
# pIC50: −log10 of the molar value.
# Target: 5α-reductase
# Assay: Inhibitory activity on 5α-reductase in vitro (conversion of [4-C^14]-testosterone to dihydrotestosterone)
# Type: biochemical
# Details: male rat prostate enzyme, 60 mins at 37° C., pH 7.4; compounds of the present invention
# Description: Inhibitory activity on 5-reductase in vitro
# The test was carried out with reference to the method of J. Shimazaki et al [See Endocrinol, Japon., 18, 179 (1971)).]
# Male rat's prostate (4 g) was homogenized with its triple volume of 0.1M HEPES buffer (PH 7.4) including 0.25M cane sugar and was centrifuged at 3000 r.p.m. for 10 mins.
# The precipitate was suspended into the buffer solution described above (10 ml), and the suspension was centrifuged at 3000 r.p.m for 5 mins. The resulting precipitate was suspended in the buffer solution(3 ml) described above and was used as a sauce of enzyme.
# A reaction mixture (total volume 0.1 ml) of [4-C^14 ]-testosterone (1.5 n mol, 1.5×10^3 cpm), NADPH (0.5 μmol), enzyme solution (0.03 ml) described above and several kinds of concentration of the compounds in the present invention was incubated for 60 mins at 37° C. Enzyme reaction was quenched by addition of a mixture (0.4 ml) of chloroform and methanol (1:2), and the mixture was centrifuged at 2000 r.p.m for 3 mins. The supernatant (50 μl) was spotted on silica gel thin layer plate. The spot on the plate was developed with a mixture of chloroform, methanol and acetic acid (99.2:0. 6:0.2). Radioactivity of dihydrotestosteron generated on plate was measured by TLC scanner of radio-autography and inhibitory ratio was calculated.
row,SMILES,pIC50
1,"CCCCCOc1c(Cl)cc(/C(C)=C/C(=O)Nc2ccccc2OCCCC(=O)O)cc1Cl [Example 1, 4-[2-(3,5-dichloro-4-pentyloxy-β-methylcinnamoylamino)phenoxy]butanoic acid]",7.05
2,"CCCCCOc1c(OC)cc(/C(C)=C/C(=O)Nc2ccccc2OCCCC(=O)O)cc1OC [Example 1-1, 4-[2-(3,5-dimethoxy-4-pentyloxy-β-methylcinnomoylamino)phenoxyl] butanoic acid]",5.80
3,CCCCCOc1cc(/C(C)=C/C(=O)Nc2ccccc2OCCCC(=O)O)cc(OCCCCC)c1OCCCCC [Example 1-2],5.74
4,"CCCCCOc1c(C)cc(/C(C)=C/C(=O)Nc2ccccc2OCCCC(=O)O)cc1C [Example 1-3, 4-[2-(3,5-dimethyl-4-pentyloxy-β-methylcinnamoylamino)phenoxy] butanoic acid]",5.68
5,"COc1c(C(C)(C)C)cc(/C(C)=C/C(=O)Nc2ccccc2OCCCC(=O)O)cc1C(C)(C)C [Example 1-4, 4-[2-(3,5-di-tert-butyl-methoxy-β-methylcinnamoylamino)phenoxy] butanoic acid]",6.00
6,"CCCCCOc1ccc(/C(C)=C/C(=O)Nc2ccccc2OCCCC(=O)O)c(Cl)c1Cl [Example 1-5, 4-[2-(2,3-dichloro-4-pentyloxy-β-methylcinnomoylamino)phenoxy] butanoic acid]",5.25
7,"CCCCOc1c(Cl)cc(/C(C)=C/C(=O)Nc2ccccc2OCCCC(=O)O)cc1Cl [Example 1-6, 4-[2-(3,5-dichloro-4-butoxy-β-methylcinnamoylamino)phenyoxy] butanoic acid]",5.80
8,"CCCOc1cc(/C(C)=C/C(=O)Nc2ccccc2OCCCC(=O)O)cc(OCCC)c1OCCC [Example 1-7, 4-[2-(3,4,5-tripropoxy-β-methylcinnamoylamino)phenoxy] butanoic acid]",5.48
9,CCCCOc1cc(/C(C)=C/C(=O)Nc2ccccc2OCCCC(=O)O)cc(OCCCC)c1OCCCC [Example 1-8],5.77
10,"CCOc1cc(/C(C)=C/C(=O)Nc2ccccc2OCCCC(=O)O)cc(OCC)c1OCC [Example 1-9, 4-[2-(3,4,5-triethoxy-β-methylcinnamoylamino)phenoxy] butanoic acid]",5.01
11,"C/C(=C\C(=O)Nc1ccccc1OCCCC(=O)O)c1ccc(CC(C)C)cc1 [Example 1-10, 4-[2-(4-isobutyl-β-methylcinnamoylamino)phenoxy] butanoic acid]",6.96
12,"CCCCc1ccc(/C(C)=C/C(=O)Nc2ccccc2OCCCC(=O)O)cc1 [Example 1-11, 4-[2-(4-butyl-β-methylcinnomoylamino)phenoxy] butanoic acid]",6.70
13,"CCCc1ccc(/C(C)=C/C(=O)Nc2ccccc2OCCCC(=O)O)cc1 [Example 1-12, 4-[2-(4-propyl-β-methylcinnamoylamino)phenoxy] utanoic acid]",6.59
14,"CCCCOc1ccc(/C(C)=C/C(=O)Nc2ccccc2OCCCC(=O)O)cc1 [Example 1-13, 4-[2-(4-butoxy-β-methylcinnamoylamino)phenoxy] utanoic acid]",6.42
15,"CCC(C)c1ccc(/C(C)=C/C(=O)Nc2ccccc2OCCCC(=O)O)cc1 (stereo not drawn) [Example 1-14, 4-[2-(4-sec-butyl-β-methylcinnomoylamino)phenoxy] butanoic acid]",6.55
16,"CCCCCOc1cc(/C(C)=C/C(=O)Nc2ccccc2OCCCC(=O)O)c([N+](=O)[O-])cc1OCCCCC [Example 1-15, 4-[2-(2-nitro-4,5-dipentyloxy-β-methylcinnomoylamino)phenoxy] butanoic acid]",5.66
17,CCCCCOc1cc(/C=C(\C)C(=O)Nc2ccccc2OCCCC(=O)O)cc(OCCCCC)c1OCCCCC [Example 1-16],6.28
